Earlier results as cited in patent publication US20200155524A1, “METHOD FOR REDUCING SIDE EFFECTS FROM ADMINISTRATION OF PHOSPHODIESTERASE-4 INHIBITORS” (ARCUTIS, INC., priority 2018, published 2020).
Where two headings read alike, the source gives them in different places.

Columns and labels:
[1] = test system: psoriasis; settings: after 4 weeks of dosing
[2] = test system: PDE-4 isoforms and subtypes; settings: different PDE-4 isoforms and subtypes
[3] = initial oral administration

half maximal inhibitory concentration (IC50) [2] | Tmax (time after administration to reach Cmax) ([3]; 250 mcg tablet) | Tmax (time after administration to reach Cmax) ([3]; 500 mcg tablet) | Structure (SMILES) | PASI 75 response rate [1]
– | – | – | CCC(=O)OCC(=O)[C@@]1(OC(=O)CC)[C@@H](C)C[C@H]2[C@@H]3CCC4=CC(=O)C=C[C@]4(C)[C@@]3(F)[C@@H](O)C[C@@]21C [betamethasone dipropionate 0.064%, betamethasone dipropionate] | 32.7%
subnanomolar | – | – | O=C(Nc1c(Cl)c[n+]([O-])cc1Cl)c1ccc(OC(F)F)c(OCC2CC2)c1 [roflumilast N-oxide, 3-cyclopropylmethoxy-4-difluoromethoxy-N-(3,5-dichloropyrid-4-yl 1-oxide)benzamide] | –
subnanomolar | 1 h | 1 h | O=C(Nc1c(Cl)cncc1Cl)c1ccc(OC(F)F)c(OCC2CC2)c1 [roflumilast, N-(3,5-dichloropyrid-4-yl)-3-cyclopropylmethoxy-4-difluoromethoxybenzamid-e] | –
